This assay has as its system CD2F1 mice, L1210 leukemia ip, survival T/C. As to the kind of experiment: NCI In Vivo Anticancer Drug Screen. Data for tumor model L1210 Leukemia (intraperitoneal) in CD2F1 (CDF1) mice. To be noted: higher = longer survival. Summed up:
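Compound-dosed mice with transplantable tumor versus matched vehicle controls; endpoint ratio T/C reported.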

Setting [1] is: endpoint: mean survival time, dose: 100.0 mg/kg/injection, schedule: Q01DX009 (ip), vehicle: saline with Tween-80.
Where [2] appears, read: endpoint: mean survival time, dose: 200.0 mg/kg/injection, schedule: Q01DX009 (ip), vehicle: saline with Tween-80.
Setting [3] is: endpoint: mean survival time, dose: 400.0 mg/kg/injection, schedule: Q01DX009 (ip), vehicle: saline with Tween-80.
The mark [4] stands for this setting: endpoint: mean survival time, dose: 100.0 mg/kg/injection, schedule: Q04DX003 (ip), vehicle: saline with Tween-80.
[5] abbreviates: endpoint: mean survival time, dose: 200.0 mg/kg/injection, schedule: Q04DX003 (ip), vehicle: saline with Tween-80.
Setting [6] is: endpoint: mean survival time, dose: 400.0 mg/kg/injection, schedule: Q04DX003 (ip), vehicle: saline with Tween-80.
The mark [7] stands for this setting: endpoint: mean survival time, dose: 25.0 mg/kg/injection, schedule: Q01DX009 (ip), vehicle: saline with Tween-80.
Setting [8] is: endpoint: mean survival time, dose: 50.0 mg/kg/injection, schedule: Q01DX009 (ip), vehicle: saline with Tween-80.
The mark [9] stands for this setting: endpoint: mean survival time, dose: 100.0 mg/kg/injection, schedule: Q04DX003 (ip), vehicle: saline.
[10] abbreviates: endpoint: mean survival time, dose: 100.0 mg/kg/injection, schedule: Q01DX001 (ip), vehicle: saline.
The mark [11] stands for this setting: endpoint: mean survival time, dose: 200.0 mg/kg/injection, schedule: Q01DX001 (ip), vehicle: saline.
The mark [12] stands for this setting: endpoint: mean survival time, dose: 100.0 mg/kg/injection, schedule: Q01DX001 (ip), vehicle: saline with Tween-80.
The mark [13] stands for this setting: endpoint: mean survival time, dose: 200.0 mg/kg/injection, schedule: Q01DX001 (ip), vehicle: saline with Tween-80.
[14] abbreviates: endpoint: mean survival time, dose: 400.0 mg/kg/injection, schedule: Q01DX001 (ip), vehicle: saline with Tween-80.
Setting [15] is: endpoint: mean survival time, dose: 200.0 mg/kg/injection, schedule: Q04DX003 (ip), vehicle: saline.
Where [16] appears, read: endpoint: mean survival time, dose: 400.0 mg/kg/injection, schedule: Q04DX003 (ip), vehicle: saline.

Where “and” joins values, the source holds several entries; their conditions need not be identical. Equal values may be shown once. Toxic doses and inconclusive results are not listed.

In the case of `O=C1C=CC(=O)N1CO` (tested in a mixture with another compound), the T/C runs as follows: under setting [1], 98 % of control; under setting [2], 98 % of control; under setting [3], 93 % of control.

`O=C(c1ccccc1)c1cn(C2CCCCC2)c(-c2ccccc2)c1NC1CCCCC1`: the T/C runs as follows: under setting [4], 87 % of control; under setting [5], 87 % of control; under setting [6], 94 % of control.

On to `C1=CC2CC2C1` (stereo not drawn), for which the T/C by setting is: (endpoint: median survival time, dose: 50.0 mg/kg/injection, schedule: Q04DX002 (ip), vehicle: saline with Tween-80) 88 % of control; (endpoint: median survival time, dose: 100.0 mg/kg/injection, schedule: Q04DX002 (ip), vehicle: saline with Tween-80) 88 % of control; (endpoint: median survival time, dose: 200.0 mg/kg/injection, schedule: Q04DX002 (ip), vehicle: saline with Tween-80) 88 % of control; (endpoint: median survival time, dose: 400.0 mg/kg/injection, schedule: Q04DX002 (ip), vehicle: saline with Tween-80) 88 % of control.

Regarding `O=P(N1CCCC1)(N1CCCC1)N1CCCC1.O=[N+]([O-])O.O=[N+]([O-])O.[O]=[U]=[O]`, the T/C is 102 % of control (endpoint: mean survival time, dose: 3.12 mg/kg/injection, schedule: Q04DX003 (ip), vehicle: Klucel (hydroxypropylcellulose) (HPC)) and 102 % of control (endpoint: mean survival time, dose: 12.5 mg/kg/injection, schedule: Q04DX003 (ip), vehicle: Klucel (hydroxypropylcellulose) (HPC)).

In the case of `CCC(C)CC(=O)Nc1cccc(O)c1` (stereo not drawn), the T/C reads like this: under setting [4], 96 % of control; under setting [5], 96 % of control; under setting [6], 91 % of control.

For the molecule `N#CC(=N)C(C#N)C#N`, the T/C is 93 % of control (endpoint: mean survival time, dose: 12.5 mg/kg/injection, schedule: Q04DX002 (ip), vehicle: saline with Tween-80); 93 % of control (endpoint: mean survival time, dose: 25.0 mg/kg/injection, schedule: Q04DX002 (ip), vehicle: saline with Tween-80); 108 % of control (endpoint: mean survival time, dose: 50.0 mg/kg/injection, schedule: Q04DX002 (ip), vehicle: saline with Tween-80).

As for `N#CC(c1cccnc1)N1CCOCC1` (stereo not drawn), the T/C was 98 % of control under setting [7] and 103 % of control under setting [8].

In the case of `N#CC(CC(=O)c1ccc(-c2ccccc2)cc1)c1ccccc1` (stereo not drawn), the T/C reads like this: under setting [4], 91 % of control; under setting [5], 91 % of control; under setting [6], 95 % of control.

Regarding `CNNCCCCC(=O)NC(C)C`, the T/C by setting is: (endpoint: mean survival time, dose: 25.0 mg/kg/injection, schedule: Q04DX003 (ip), vehicle: saline) 105 % of control; (endpoint: mean survival time, dose: 50.0 mg/kg/injection, schedule: Q04DX003 (ip), vehicle: saline) 101 % of control; under setting [9], 101 % of control.

For `COC(=O)c1c2ccccc2[n+](C)c2ccccc12`, the T/C (endpoint: mean survival time, dose: 12.5 mg/kg/injection, schedule: Q01DX009 (ip), vehicle: saline) was 95 % of control; the T/C (endpoint: mean survival time, dose: 25.0 mg/kg/injection, schedule: Q01DX009 (ip), vehicle: saline) is 95 % of control; the T/C (endpoint: mean survival time, dose: 50.0 mg/kg/injection, schedule: Q01DX009 (ip), vehicle: saline) is 100 % of control; the T/C under setting [10] was 91 % of control; the T/C under setting [11] is 96 % of control.

In the case of `O=C(O)c1cc(N=Nc2ccc3ccccc3c2)ccc1O`, the T/C is, setting by setting: under setting [1], 103 % of control; under setting [2], 106 % of control; under setting [3], 98 % of control.

For `O=C(c1ccc([N+](=O)[O-])cc1)C(Br)C(Br)c1ccncc1` (stereo not drawn), the T/C under setting [4] was 95 % of control, the T/C under setting [5] was 97 % of control and the T/C under setting [6] was 103 % of control.

For `CCC(=O)Nc1cc([N+](=O)[O-])cc([N+](=O)[O-])c1`, the T/C runs as follows: (endpoint: mean survival time, dose: 100.0 mg/kg/injection, schedule: Q04DX002 (ip), vehicle: saline with Tween-80) 105 % of control; (endpoint: mean survival time, dose: 200.0 mg/kg/injection, schedule: Q04DX002 (ip), vehicle: saline with Tween-80) 100 % of control.

Consider `CC(C)(C)C(O)CC(O)(C(F)(F)Cl)C(F)(F)Cl` (stereo not drawn), for which the T/C runs as follows: under setting [1], 101 % of control; under setting [2], 109 % of control; under setting [3], 105 % of control.

For the molecule `CS(=O)(=O)OCCCN(CCCOS(C)(=O)=O)c1ccc(C=Nc2ccc(-c3csc(COc4ccc(Cl)cc4)n3)cc2)cc1`, the T/C was 91 % of control under setting [12], 91 % of control under setting [13] and 95 % of control under setting [14].

On to `O=C(CC(Cl)(C(F)(F)F)C(F)(F)F)c1cccc([N+](=O)[O-])c1`, for which the T/C is 103 % of control (endpoint: mean survival time, dose: 12.5 mg/kg/injection, schedule: Q01DX001 (ip), vehicle: saline with Tween-80); 100 % of control (endpoint: mean survival time, dose: 25.0 mg/kg/injection, schedule: Q01DX001 (ip), vehicle: saline with Tween-80); 97 % of control and 105 % of control (endpoint: mean survival time, dose: 50.0 mg/kg/injection, schedule: Q01DX001 (ip), vehicle: saline with Tween-80).

In the case of `CCOC(=O)C(C=O)(NC(=O)c1ccccc1)OCC` (stereo not drawn), the T/C under setting [1] is 100 % of control, the T/C under setting [2] was 105 % of control and the T/C under setting [3] is 96 % of control.

`C[n+]1cccc(C(=O)N/N=C/c2ccco2)c1`: the T/C under setting [9] is 105 % of control, the T/C under setting [15] was 98 % of control and the T/C under setting [16] was 104 % of control.

In the case of `CS(C)=O.O=C([O-])CC(=O)[O-].[NH-]CC(O)CN(Cc1ccccc1)CC(O)CN.[Pt+4]` (stereo not drawn), the T/C is, setting by setting: (endpoint: median survival time, dose: 10.0 mg/kg/injection, schedule: Q04DX003 (ip), vehicle: water) 107 % of control; (endpoint: median survival time, dose: 20.0 mg/kg/injection, schedule: Q04DX003 (ip), vehicle: water) 104 % of control; (endpoint: median survival time, dose: 40.0 mg/kg/injection, schedule: Q04DX003 (ip), vehicle: water) 104 % of control; (endpoint: median survival time, dose: 50.0 mg/kg/injection, schedule: Q04DX003 (ip), vehicle: water) 100 % of control; (endpoint: median survival time, dose: 80.0 mg/kg/injection, schedule: Q04DX003 (ip), vehicle: water) 108 % of control; (endpoint: median survival time, dose: 100.0 mg/kg/injection, schedule: Q04DX003 (ip), vehicle: water) 104 % of control. The T/C runs as follows: (endpoint: median survival time, dose: 200.0 mg/kg/injection, schedule: Q04DX003 (ip), vehicle: water) 117 % of control and 110 % of control; (endpoint: median survival time, dose: 400.0 mg/kg/injection, schedule: Q04DX003 (ip), vehicle: water) 114 % of control.

Take `Cc1ccc(/C=N\N=C\c2ccc(C)cc2)cc1`: the T/C under setting [4] was 90 % of control and the T/C under setting [6] was 95 % of control.

Regarding `C/C(=C/c1ccc([N+](=O)[O-])cc1)C(=O)O`, the T/C reads like this: under setting [12], 103 % of control; under setting [13], 100 % of control; under setting [14], 103 % of control.

On to `CC(OC(=O)c1ccc([N+](=O)[O-])cc1)C(C)(C)C` (stereo not drawn), for which the T/C is, setting by setting: under setting [10], 98 % of control; under setting [11], 100 % of control; (endpoint: mean survival time, dose: 400.0 mg/kg/injection, schedule: Q01DX001 (ip), vehicle: saline) 96 % of control.

Take `COc1cc2c(ccc3c4cc(OC)c(OC)cc4c[n+](C)c23)cc1O`: the T/C reads like this: (endpoint: mean survival time, dose: 80.0 mg/kg/injection, schedule: Q01DX009 (ip), vehicle: saline) 150 % of control; (endpoint: mean survival time, dose: 160.0 mg/kg/injection, schedule: Q01DX009 (ip), vehicle: saline with Tween-80) 150 % of control; (endpoint: mean survival time, dose: 160.0 mg/kg/injection, schedule: Q01DX009 (ip), vehicle: saline) 174 % of control; (endpoint: mean survival time, dose: 320.0 mg/kg/injection, schedule: Q01DX009 (ip), vehicle: saline with Tween-80) 87 % of control; (endpoint: mean survival time, dose: 320.0 mg/kg/injection, schedule: Q01DX009 (ip), vehicle: saline) 86 % of control.

Turning to `O=C(N1CCC2(CC1)SSC1(CCN(C(=O)C(F)(F)F)CC1)S2)C(F)(F)F`, the T/C was 88 % of control under setting [4], 90 % of control under setting [5] and 90 % of control under setting [6].

Take `CN(C)CCSCC(OC(=O)c1ccccc1)c1ccccc1` (stereo not drawn): the T/C under setting [7] is 102 % of control, the T/C under setting [8] is 98 % of control and the T/C under setting [1] is 100 % of control.

As to `NC(=O)NC1CCCCCCC1`, the T/C under setting [1] is 102 % of control, the T/C under setting [2] is 100 % of control and the T/C under setting [3] is 110 % of control.

For the molecule `NCc1cccc([N+](=O)[O-])c1`, the T/C under setting [9] is 106 % of control, the T/C under setting [15] is 109 % of control and the T/C under setting [16] is 98 % of control.

In the case of `CCOC(=O)C(Br)(Br)C(=O)OCC`, the T/C by setting is: (endpoint: mean survival time, dose: 6.25 mg/kg/injection, schedule: Q01DX009 (ip), vehicle: saline with Tween-80) 99 % of control; (endpoint: mean survival time, dose: 12.5 mg/kg/injection, schedule: Q01DX009 (ip), vehicle: saline with Tween-80) 99 % of control; under setting [7], 99 % of control.

On to `O=C(Nc1ccccc1)OC1CCCCC1`, for which the T/C runs as follows: under setting [4], 101 % of control; under setting [5], 100 % of control; under setting [6], 97 % of control.

Source of the values: PubChem BioAssay AID256 (DTP/NCI, 2004).
